Experimental data published in patent publication US8609608B2, “Antimicrobial peptides” (C3 Jian, Inc., priority 2007, dated 2013).
Where no end group is shown, it is not given here.

Columns and labels:
[1] = tested on: clinical isolates of S. mutans; type: cell-based, Streptococcus mutans; details: clinical isolates of
Procedure, shortened: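 Bacteria grown anaerobically (80% N2, 10% CO2, 10% H2) to 1×10^8 CFU/ml were diluted to 1×10^5 CFU/ml in Todd-Hewitt or Veillonella medium. Peptide was added in 1:2 dilutions (500–1.95 or 512–2 μg/ml) and plates were incubated 16–20 h at 37° C. MIC was the last clear well by eye, in triplicate.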

S. mutans UA159 = assay: Killing kinetics (time-kill assay); type: cell-based, Streptococcus mutans; details: peptide 25 μg/ml, UA159
Procedure: The determination of killing kinetics for fusion and parental peptides was conducted essentially as described previously (Eckert et al. (2006) Antimicrob. Agents Chemother. 50: 1480-1488). Briefly, medium-diluted overnight UA159 cultures (0.5×10^6 to 1×10^6 CFU/ml) were challenged with peptide at a concentration of 25 μg/ml, and at the indicated time intervals (“0 min” indicates untreated samples), a 10-μL aliquot was removed and the surviving CFU were rescued by dilution (1:50) into growth medium and then spread on TH agar plates for quantitation. […] Kinetics were determined by recording the average number of surviving CFU/ml versus incubation time in the presence of peptide (all assays were independently repeated three to five times). For Table 8, time to bactericidal killing (TC) values were defined as the time required for the level of surviving CFU/ml from peptide-treated cultures to fall 3 log10 below the levels of recovered S. mutans CFU/ml from untreated samples.

S. gordonii Challis DL1 = type: cell-based, Streptococcus gordonii
Procedure: (§1) S. mutans clinical isolates UA140 (32), UA159 (1), T8 (33), ATCC 25175, GS5 (Kuramitsu and Ingersoll (1977) Infect Immun., 17: 330-337), and all gram-positive strains listed below (see Table 9) were grown under anaerobic conditions in brain heart infusion or Todd-Hewitt (TH) broth (Difco) overnight at 37° C. prior to use (Eckert et al. (2006) Antimicrob. Agents Chemother. 50: 3651-3657). Veillonella atypica PK1910 was grown in Veillonella medium (Egland et al. (2004) Proc. Natl. Acad. Sci., USA, 101: 16917-16922). All strains were grown in an anaerobic atmosphere of 80% N2, 10% CO2, and 10% H2.
(§2) Antibacterial growth inhibition assays were performed using sterile 96-well plates in a final volume of 100 μl, TH or Veillonella medium as described previously (Qi et al. (2005) FEMS Microbial Lett. 251: 321-326). Briefly, bacterial cells were grown overnight to an optical density at 600 nm of 0.75 to 0.8 (corresponding to 1×10^8 CFU/ml) and then diluted to 1×10^5 CFU/ml in broth and aliquoted onto plates. An appropriate volume of peptide stock solution (5 to 20 mg/ml, in water or methanol, depending on solubility) was then added to the first column of the plate to give 500 μg/ml or 512 μg/ml, followed by serial 1:2 dilutions across the plate to give wells containing peptides ranging from 500 to 1.95 μg/ml or 512 to 2 μg/ml. Methanol alone was also added to control for the effects of the solvent. The plates were then incubated at 37° C. under anaerobic conditions for 16 to 20 h without shaking, and the MIC was determined as the concentration of peptide present in the last clear well after visual inspection. Up to 5% (vol/vol) methanol was found not to be antimicrobial (data not shown). MICs were determined in triplicate for all bacteria.

S. mitis ATCC 903 = type: cell-based, Streptococcus mitis
Procedure: as §1, §2

S. sanguinis NY101 = type: cell-based, Streptococcus sanguinis
Procedure: as §1, §2

L. casei ATCC 4646 = type: cell-based, Lactobacillus casei
Procedure: as §1, §2

V. atypica PK1910 = type: cell-based, Veillonella atypica
Procedure: as §1, §2

| Substance | MIC [1] [µg/mL] | TC, time required to kill 3 log10 of recoverable CFU/ml (S. mutans UA159) [min] | MIC S. gordonii Challis DL1 (S. gordonii Challis DL1) [µg/mL] | MIC S. mitis ATCC 903 (S. mitis ATCC 903) [µg/mL] | MIC S. sanguinis NY101 (S. sanguinis NY101) [µg/mL] | MIC L. casei ATCC 4646 (L. casei ATCC 4646) [µg/mL] | MIC V. atypica PK1910 (V. atypica PK1910) [µg/mL] | MIC (fusion library peptides) [1] [µg/mL] |
| --- | --- | --- | --- | --- | --- | --- | --- | --- |
| RRRWWWF-NH2 [Peptide 2C-3, RRRWWWF*] | 4 to 8 | 220 | 32 | 32 | 16 | 16 | 64 | – |
| RWRWRWFGGGRWRWRWF-NH2 [FRW-11, RWRWRWF-GGG-RWRWRWF*] | – | 90 | – | – | – | – | – | 16 |
| RWRWRWFPSGSPRWRWRWF-NH2 [FRW-10, RWRWRWF-PSGSP-RWRWRWF*] | – | 270 | – | – | – | – | – | 32 |
| RWRWRWFRWRWRWF-NH2 [FRW-8, RWRWRWFRWRWRWF*] | – | 50 | – | – | – | – | – | 16 |
